Measurements: US11578043B2, “Salt of delmopinol” (Lundbeck Pharmaceuticals Italy S.p.A., priority 2017, dated 2023)
Where a name gives a salt, the structure may show the parent alone.

Columns and labels:
[1] = Dynamic Vapour Sorption (DVS) experiments; format: physicochemical; settings: DVS at 25° C.; for water / moisture absorbed (change in mass) when humidity is increased to 95%: relative humidity from 30% RH up to 95% RH in steps of 10% RH; for hygroscopicity (in words): up to 95% RH, non-hygroscopic = less than 1.5% moisture absorbed at 95% RH
Description: The DVS experiments depicted in FIGS. 3 and 4 were performed at 25° C. […] In the present context, a “non-hygroscopic” salt of delmopinol indicates a salt wherein less than 1.5% moisture is absorbed when the salt is exposed to 95% RH at 25° C. for example when determined by Dynamic Vapor Sorption (DVS) according to the method of Example 4. Dynamic Vapour Sorption (DVS) experiments were performed for delmopinol HCl and delmopinol citrate using a SMS DVS Advantage 01 changing the relative humidity from 30% RH up to 95% RH in steps of 10% RH.

[2] = XRPD of the salt before and after DVS (solid state change on exposure to humidity); format: physicochemical; settings: after DVS experiments at 95% RH
Description: The XRPD diffractograms in FIGS. 5 and 6 were obtained using CuKα1 radiation (λ=1.5406 Å). […] The hygroscopicity of delmopinol HCl is reflected in FIG. 4 depicting the DVS diagram obtained at 25° C. by the method described in Example 4. […] These diffractograms were obtained on another instrument.

SMILES	humidity at which the salt starts absorbing water [1]	water / moisture absorbed (change in mass) when humidity is increased to 95% [1]	hygroscopicity (in words) [1]	change of solid state caused by exposure to humidity (XRPD after DVS vs non-exposed material) [2]
CCCC(CCC)CCCC1COCCN1CCO (stereo not drawn) [delmopinol HCl, 2-(3-(4-propylheptyl)morpholino)ethan-1-ol]	below 50 % humidity	about 45%	very hygroscopic	irreversible
CCCC(CCC)CCCC1COCCN1CCO.O=C(O)CC(O)(CC(=O)O)C(=O)O (stereo not drawn) [delmopinol citrate, 2-(3-(4-propylheptyl)morpholino)ethan-1-ol]	–	less than 1.5%	non-hygroscopic	–
